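Here, GI50 denotes the concentration required for 50% inhibition of growth. TGI is the concentration that stops growth completely.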
Tests used:
Assay in all cases: DTP human tumour cell line panel, 384-well format
A498 renal = test system: A498 renal
BT-549 breast = test system: BT-549 breast
CAKI-1 renal = test system: CAKI-1 renal
EKVX NSCLC = test system: EKVX NSCLC
HCT-15 colon = test system: HCT-15 colon
HT29 colon = test system: HT29 colon
KM12 colon = test system: KM12 colon
MOLT-4 leukemia = test system: MOLT-4 leukemia
NCI-H23 lung = test system: NCI-H23 lung
OVCAR-8 ovarian = test system: OVCAR-8 ovarian
SF-268 CNS = test system: SF-268 CNS
SF-539 CNS = test system: SF-539 CNS
UO-31 renal = test system: UO-31 renal

Structure (SMILES): Cn1cc(CNCC2CCN(c3ncc(C(=O)NO)cn3)CC2)c2ccccc21
- GI50 (A498 renal): 12.8 nM
- TGI (A498 renal): 29.3 nM
- GI50 (BT-549 breast): 21.6 nM
- TGI (BT-549 breast): 75.8 nM
- GI50 (CAKI-1 renal): < 11.2 nM
- TGI (CAKI-1 renal): 26 nM
- GI50 (EKVX NSCLC): 30.4 nM
- TGI (EKVX NSCLC): 303 nM
- GI50 (HCT-15 colon): 49.4 nM
- TGI (HCT-15 colon): 300 nM
- GI50 (HT29 colon): 10 nM
- TGI (HT29 colon): 21.6 nM
- GI50 (KM12 colon): 16.7 nM
- TGI (KM12 colon): 63.6 nM
- GI50 (MOLT-4 leukemia): < 10 nM
- TGI (MOLT-4 leukemia): < 10 nM
- GI50 (NCI-H23 lung): 13.1 nM
- TGI (NCI-H23 lung): 42.1 nM
- GI50 (OVCAR-8 ovarian): < 10 nM
- TGI (OVCAR-8 ovarian): 21.3 nM
- GI50 (SF-268 CNS): < 10.4 nM
- TGI (SF-268 CNS): 24.4 nM
- GI50 (SF-539 CNS): 13.9 nM
- TGI (SF-539 CNS): 53 nM
- GI50 (UO-31 renal): 27.3 nM
- TGI (UO-31 renal): 123 nM
